Experimental data: PubChem BioAssay (NCI)
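In this assay, cells in 96-well plates receive the compound at five concentrations for 48 hours. Endpoints are linearly interpolated between the surrounding concentrations. TGI is the concentration that stops growth completely.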

Tests used:
Assay in all cases: NCI tumour cell line growth inhibition, 48 h
DU-145 prostate = system: DU-145 prostate
MALME-3M melanoma = system: MALME-3M melanoma
HCT-116 colon = system: HCT-116 colon
LOX IMVI melanoma = system: LOX IMVI melanoma
786-0 renal = system: 786-0 renal
SF-539 CNS = system: SF-539 CNS
HOP-62 NSCLC = system: HOP-62 NSCLC
TK-10 renal = system: TK-10 renal
RPMI-8226 leukemia = system: RPMI-8226 leukemia
SNB-75 CNS = system: SNB-75 CNS

CC1C2CC(C(S(=O)(=O)N3CCOCC3)/C2=N\O)C1(C)C (stereo not given)
TGI (DU-145 prostate): > 100 µM | TGI (MALME-3M melanoma): > 100 µM | TGI (HCT-116 colon): > 100 µM | TGI (LOX IMVI melanoma): > 100 µM | TGI (786-0 renal): > 100 µM | TGI (SF-539 CNS): > 100 µM | TGI (HOP-62 NSCLC): > 100 µM | TGI (TK-10 renal): > 100 µM | TGI (RPMI-8226 leukemia): > 100 µM | TGI (SNB-75 CNS): > 100 µM

CCOC(=O)NC(NC1=NCCS1)(C(=O)OCC)C(F)(F)F (stereo not given)
TGI (DU-145 prostate): > 100 µM | TGI (MALME-3M melanoma): > 100 µM | TGI (HCT-116 colon): > 100 µM | TGI (LOX IMVI melanoma): > 100 µM | TGI (786-0 renal): > 100 µM | TGI (SF-539 CNS): > 100 µM | TGI (HOP-62 NSCLC): > 100 µM | TGI (TK-10 renal): > 100 µM | TGI (RPMI-8226 leukemia): > 100 µM | TGI (SNB-75 CNS): > 100 µM

COc1ccc2oc(OC)c(CC=C(C)C)c(=O)c2c1C
TGI (DU-145 prostate): > 100 µM | TGI (MALME-3M melanoma): > 100 µM | TGI (HCT-116 colon): > 100 µM | TGI (LOX IMVI melanoma): > 100 µM | TGI (786-0 renal): > 100 µM | TGI (SF-539 CNS): > 100 µM | TGI (HOP-62 NSCLC): > 100 µM | TGI (TK-10 renal): > 100 µM | TGI (RPMI-8226 leukemia): > 100 µM | TGI (SNB-75 CNS): > 100 µM

COc1ccc2sc(-n3nc4ccccc4c3Nc3nc4ccc(OC)cc4s3)nc2c1
TGI (DU-145 prostate): 17.9 µM | TGI (MALME-3M melanoma): 14.8 µM | TGI (HCT-116 colon): 5.95 µM | TGI (LOX IMVI melanoma): 24.3 µM | TGI (786-0 renal): 3.87 µM | TGI (SF-539 CNS): 4.5 µM | TGI (HOP-62 NSCLC): 4.43 µM | TGI (TK-10 renal): 11.8 µM | TGI (RPMI-8226 leukemia): 7.12 µM | TGI (SNB-75 CNS): 9.92 µM

Fc1ccc2nc3n(c2c1)C(c1c(Cl)cccc1Cl)SC3 (stereo not given)
TGI (DU-145 prostate): > 100 µM | TGI (MALME-3M melanoma): > 100 µM | TGI (HCT-116 colon): > 100 µM | TGI (LOX IMVI melanoma): > 100 µM | TGI (786-0 renal): > 100 µM | TGI (SF-539 CNS): > 100 µM | TGI (HOP-62 NSCLC): > 100 µM | TGI (TK-10 renal): > 100 µM | TGI (RPMI-8226 leukemia): > 100 µM | TGI (SNB-75 CNS): > 100 µM

CCOC(=O)C1OC(C2(C)OC3(OC4(C=CC3O)OC(C(C)C(=O)C(C)C(O)C(C)CC(C)c3c(Cl)cc(C)c(O)c3C(=O)O)C(C)CC4C)C(C)C2OC)CC1O (stereo not given)
TGI (DU-145 prostate): 5.93 µM | TGI (MALME-3M melanoma): 1.81 µM | TGI (HCT-116 colon): 3.75 µM | TGI (LOX IMVI melanoma): 14.2 µM | TGI (786-0 renal): 4.47 µM | TGI (SF-539 CNS): 7.51 µM | TGI (HOP-62 NSCLC): 0.483 µM | TGI (TK-10 renal): 7.81 µM | TGI (RPMI-8226 leukemia): > 14.7 µM | TGI (SNB-75 CNS): 0.919 µM

CC(C)(C)c1cc(C2=NN(c3ccccc3)C(c3ccccc3)C2)cc(C(C)(C)C)c1O (stereo not given)
TGI (DU-145 prostate): > 100 µM | TGI (MALME-3M melanoma): > 100 µM | TGI (HCT-116 colon): > 100 µM | TGI (LOX IMVI melanoma): > 100 µM | TGI (786-0 renal): > 100 µM | TGI (SF-539 CNS): > 100 µM | TGI (HOP-62 NSCLC): > 100 µM | TGI (TK-10 renal): > 100 µM | TGI (RPMI-8226 leukemia): > 100 µM | TGI (SNB-75 CNS): > 100 µM

Brc1ccc2c([C@H]3CN[C@@H](c4c[nH]c5cc(Br)ccc45)CN3)c[nH]c2c1
TGI (DU-145 prostate): 9.98 µM | TGI (MALME-3M melanoma): 7.73 µM | TGI (HCT-116 colon): 3.03 µM | TGI (LOX IMVI melanoma): 3.36 µM | TGI (786-0 renal): 3.18 µM | TGI (SF-539 CNS): 7.46 µM | TGI (HOP-62 NSCLC): 23.8 µM | TGI (TK-10 renal): 18.5 µM | TGI (RPMI-8226 leukemia): 7.15 µM | TGI (SNB-75 CNS): 17.8 µM

N=C(N)SCc1ccc(Cl)cc1Cl (tested in a mixture with another compound)
TGI (DU-145 prostate): 29.8 µM | TGI (MALME-3M melanoma): 34.2 µM | TGI (HCT-116 colon): 25 µM | TGI (LOX IMVI melanoma): 38.8 µM | TGI (786-0 renal): 26.9 µM | TGI (SF-539 CNS): 31.9 µM | TGI (HOP-62 NSCLC): 30.2 µM | TGI (TK-10 renal): 18.8 µM | TGI (RPMI-8226 leukemia): 12.7 µM | TGI (SNB-75 CNS): 30.9 µM

O=C(/C=C/c1ccc(O)c(O)c1)c1cc(O)cc(O)c1
TGI (DU-145 prostate): 44.3 µM | TGI (MALME-3M melanoma): 27.6 µM | TGI (HCT-116 colon): 25.6 µM | TGI (LOX IMVI melanoma): 18.9 µM | TGI (786-0 renal): 26.6 µM | TGI (SF-539 CNS): 20.7 µM | TGI (HOP-62 NSCLC): 36.6 µM | TGI (TK-10 renal): 39.7 µM | TGI (RPMI-8226 leukemia): > 100 µM | TGI (SNB-75 CNS): 34.5 µM

COc1ccc(/C=C2\CCC(CNc3ccc(OC)cc3)C2=O)cc1 (stereo not given)
TGI (DU-145 prostate): > 65.4 µM | TGI (MALME-3M melanoma): 47.3 µM | TGI (HCT-116 colon): 23.2 µM | TGI (LOX IMVI melanoma): 28 µM | TGI (786-0 renal): 23.2 µM | TGI (SF-539 CNS): 36.4 µM | TGI (HOP-62 NSCLC): > 100 µM | TGI (TK-10 renal): 36 µM | TGI (RPMI-8226 leukemia): > 24 µM | TGI (SNB-75 CNS): 94.5 µM

Cn1c2ccccc2c2c(=O)[nH]c(=O)[nH]c21
TGI (DU-145 prostate): > 100 µM | TGI (MALME-3M melanoma): > 100 µM | TGI (HCT-116 colon): > 100 µM | TGI (LOX IMVI melanoma): > 100 µM | TGI (786-0 renal): > 100 µM | TGI (SF-539 CNS): > 100 µM | TGI (HOP-62 NSCLC): > 100 µM | TGI (TK-10 renal): > 100 µM | TGI (RPMI-8226 leukemia): > 100 µM | TGI (SNB-75 CNS): > 100 µM

Cc1cc(Cc2c(F)c(F)c(C(c3cc(C)no3)c3c(F)c(F)c(F)c(F)c3F)c(F)c2F)on1 (stereo not given)
TGI (DU-145 prostate): > 100 µM | TGI (MALME-3M melanoma): > 100 µM | TGI (HCT-116 colon): > 100 µM | TGI (LOX IMVI melanoma): > 100 µM | TGI (786-0 renal): > 100 µM | TGI (SF-539 CNS): > 100 µM | TGI (HOP-62 NSCLC): > 100 µM | TGI (TK-10 renal): > 100 µM | TGI (RPMI-8226 leukemia): > 100 µM | TGI (SNB-75 CNS): > 100 µM

CCOC(=O)C(C(=S)Nc1ccccc1)c1nn2c(=O)cc(C)nc2s1 (stereo not given)
TGI (DU-145 prostate): > 100 µM | TGI (MALME-3M melanoma): 53.5 µM | TGI (HCT-116 colon): 48.3 µM | TGI (LOX IMVI melanoma): 30.4 µM | TGI (786-0 renal): > 100 µM | TGI (SF-539 CNS): 86.6 µM | TGI (HOP-62 NSCLC): > 100 µM | TGI (TK-10 renal): 86.8 µM | TGI (RPMI-8226 leukemia): 67.5 µM | TGI (SNB-75 CNS): 60 µM

O=c1[nH]c(Nc2cc(Cl)cc(Cl)c2)nc2nc[nH]c12
TGI (DU-145 prostate): > 75 µM | TGI (MALME-3M melanoma): > 75 µM | TGI (HCT-116 colon): > 75 µM | TGI (LOX IMVI melanoma): > 75 µM | TGI (786-0 renal): > 75 µM | TGI (SF-539 CNS): > 75 µM | TGI (HOP-62 NSCLC): > 75 µM | TGI (TK-10 renal): > 75 µM | TGI (RPMI-8226 leukemia): > 75 µM | TGI (SNB-75 CNS): > 75 µM

Cc1noc2nnn(-c3ccc(Cl)cc3)c(=O)c12
TGI (DU-145 prostate): 14.3 µM | TGI (MALME-3M melanoma): 26 µM | TGI (HCT-116 colon): 11.3 µM | TGI (LOX IMVI melanoma): 11.4 µM | TGI (786-0 renal): 8.33 µM | TGI (SF-539 CNS): 1.73 µM | TGI (HOP-62 NSCLC): 29.7 µM | TGI (TK-10 renal): 21.8 µM | TGI (RPMI-8226 leukemia): 3.11 µM | TGI (SNB-75 CNS): 7.47 µM

CCOC(=O)c1ccc(C(=O)/C(C(C)=O)=C2\CCCN2C)n1C
TGI (DU-145 prostate): > 100 µM | TGI (MALME-3M melanoma): > 100 µM | TGI (HCT-116 colon): > 100 µM | TGI (LOX IMVI melanoma): > 100 µM | TGI (786-0 renal): > 100 µM | TGI (SF-539 CNS): 22.8 µM | TGI (HOP-62 NSCLC): > 100 µM | TGI (TK-10 renal): > 100 µM | TGI (RPMI-8226 leukemia): > 100 µM | TGI (SNB-75 CNS): 66.6 µM
